Measured values from patent US20180353461A1, “USE OF CANNABINOIDS AS CERAMIDE-GENERATING ANTICANCER AGENTS IN TUMORS OF THE HEMATOPOIETIC AND LYMPHOID TISSUES” (priority 2014, published 2018).

Legend:
[1] = test system: HL60 cells; assay: Mitochondrial membrane potential in HL60 cells (TMRE, flow cytometry); type: cell-based, human
Description: Mitochondrial membrane potential and superoxide detection Cells (10e6 cells per assay) were treated with a concentration of WIN-55 for 15, 30, 45 and 60 min at 37° C. Fluorochromes 10 μM TMRM [(tetramethylrhodamine-ethyl-ester-perchlorate), Santa Cruz Biotechnology Inc.] to detect membrane potential, or 5 μM MitoSOX [Molecular Probes (Invitrogen)] to detect mitochondrial superoxide, were added for the last 15 min of treatment. CCCP (uncoupler of oxidative phosphorylation) or H2O2 (oxidant agent) was used as a positive control of the techniques respectively (Labbe et al., 2008). The fluorescence detection of TMRM was measured for flow citometry. Fluorescent intensity was quantified and analyzed using Infinicyt™ Software (Cytognos, Salamanca, Spain).
To delve into the processes that participate in cannabinoid-induced apoptosis, we evaluated the potential of mitochondrial membrane potential in HL60 cells after treatment with WIN-55, at indicated times, using TMRE assay by flow citometry. We observed that cannabinoids induced a drop of Δψm in HL60 cells (FIG. 20a). The loss of potential started as early as 15 min after exposure to the cannabinoid, and continued decreasing over time. Also the ROS increase by MitoSOX assay was observed, specially in HL60 cells after exposure to WIN-55 (FIG. 20b).

[2] = test system: HL60 cells; assay: SPT expression, ceramide staining and SPT inhibition in HL60 cells; type: cell-based, human
Description: Extracted proteins (15-25 ug/well) were separated by sodium dodecyl sulfate-polyacrylamide gel electrophoresis (SDS/PAGE) in pre-cast polyacrylamide gels AnykD (Bio-Rad Laboratories, Hercules, Calif., USA) under reducing and denaturing conditions. Electrophoretic run was performed at a constant current of 15 mA per gel in a Mini-Protean® Tetra Cell (Bio-Rad Laboratories) and were electrophoretically transferred onto PVDF membranes using Trans-Blot® Turbo™ System (Bio-Rad Laboratories). Blocking was performed with 2% bovine serum albumin [(BSA), Santa Cruz Biotechnology] in Tween-Tris buffer saline (TTBS). Membranes were incubated overnight at 4° C. with corresponding primary antibody in TTBS.
Cells were grown on glass cover slips (Menzel-Glaser, Thermo Fisher Scientific) in the presence or absence of WIN 55,212-2. The cover slips were then washed twice in phosphate-buffered saline (PBS), and the cells were fixed in cold 4% paraformaldehyde for 10 min, treated with sodium borohydride and, permeabilized in 0.02% Triton X-100 in PBS with 10% normal donkey serum for blocking. Cell nuclei were stained with diamidino-2-phenylindole [(DAPI), Pierce, Thermo Fisher Scientific)]. Then, cells were incubated with the anti-CB1 or anti-CB2 receptor antibodies or anti-ceramide in blocking buffer overnight at 4° C. in a humid chamber (Simport, Beloeil, QC, Canada). After washing with PBS, samples were further incubated for 90 min with Alexa 647- or Alexa 488-conjugated donkey secondary antibody.
After final washing in PBS, the cover slips were dried and mounted on slides using Fluoromount Aqueous Mounting Medium (Sigma-Aldrich). Changes in the protein expression were visualized by fluorescence microscopy using a specific excitation for each antibody. Digital images were acquired with CellSens Dimension Software (Olympus) and manipulated with Photoshop CS2 Software (Adobe Systems Inc). There was no labeling when the primary antibody was omitted (data not shown).
Additionally, de novo synthesis of ceramides also contribute to the apoptotic process triggered by cannabinoids in AML. We examined whether ceramides participate in the cannabinoid-induced apoptosis in leukemic cells. To this end, we analyzed the expression of serine palmitoyltransferase (SPT), the enzyme that catalyses the rate-limiting step of ceramide synthesis de novo. […] To ensure that this up-regulation of SPT entails an increased of ceramide synthesis, we examined the expression of ceramide by immunohistochemistry. […] Furthermore, to strengthen the engagement of the ceramide in cannabinoid-induced apoptosis, we analyzed the cannabinoid-induce apoptosis after inhibition of ceramide synthesis with Myoricin, a selective SPT inhibitor.

[3] = test system: U266 cells; assay: MM xenograft (U266 cells, subcutaneous) in NSG mice; type: in vivo; conditions: 5 mg/kg WIN-55,212-2 intraperitoneally every 24 h or 48 h
Description: NOD/scid/IL-2R gammae null (NSG) mice were purchased from Charles River Laboratories International (L'Arbresle, France) and maintained with food and water ad libitum, under specific pathogen-free conditions. When mice were 8-9 weeks old, human tumor xenografts were induced by subcutaneous inoculation in suprascapular area of MM cell line U266 cells. To establish tumor, 5×10e6 cells were resuspended in 100 ul RPMI medium without serum and 100 ul of Matrigel (BD Biosciences). To easy visualization the hair was trimmed from the site of inoculation. Closely second week following implantation, when tumors became palpable (>0.5 cm), mice were randomly assigned to the following groups (10 mice per group): group 1 received intraperitoneally 5 mg/kg WIN-55,212-2 every 24 h, group 2 received the treatment every 48 hl and group 3 received vehicle. […] Tumor growth was assessed three times each week following tumor implantation. Two bisecting diameters of each tumor were measured with calipers, and the volume was calculated using the formula length x (width) e2×0.4 mm3. […]
The administration with cannabinoids inhibits remarkably the growth of tumor in vivo. Finally, we analyzed the anti-tumor effect of the cannabinoids in vivo, using a model of human MM xenografted in immunodeficient mice NOD/SCID. […]

CS(=O)(=O)O.Cc1c(C(=O)c2cccc3ccccc23)c2cccc3c2n1[C@H](CN1CCOCC1)CO3 [WIN-55, (R)-(+)-[2,3-dihydro-5-methyl-3-(4-morpholinylmethyl)-pyrrolo-[1,2,3]-1,4-benzoxazin-6-yl]-1-naphthalenylmethanone mesylate]
time after exposure at which the loss of potential started ([1]; HL60): 15 min
mitochondrial membrane potential (Δψm) ([1]; HL60, TMRE, flow cytometry): drop of Δψm
SPT expression level in leukemic cells ([2]; HL60): enhanced
SPT, 2 h after exposure ([2]; HL60): moderate increase
ceramide by immunohistochemistry, compared to untreated cells ([2]; HL60, 50 uM, 18 hours): remarkable increase
tumor volume / tumor growth compared to vehicle-treated counterparts [3]: inhibit tumor growth
